Measured values published in patent US6655081B1, “Mushrooms” (DSM N.V., priority 1999, dated 2003).

What was measured:
Agaricus bisporus = format: in vivo; settings: after 3 flushes
Procedure: This example describes the effect of natamycin on the yield of mushrooms. Tubs having an area of 0.26 m^2 were filled with commercially prepared pasteurized mushroom substrate inoculated with spawn (seed) of the commercial button mushroom Agaricus bisporus. Following colonization by the mushroom fungus, the substrate was covered by a layer of peat moss, mixed with limestone (the casing layer) and further incubated under well known standard conditions until mycelial strands were visible on the surface. Fruiting bodies were initiated by manipulating the external environment using methods well known in the industry. 9 tubs were treated five days prior to the first flush by applying an aqueous solution containing 10 ppm of natamycin, as a control 9 tubs were treated the same way however without natamycin. The aqueous solution was applied at a rate of 1.84 liter per square meter and the mushroom beds were allowed to continue growing.

Dactylium dendroides = test: Mould growth on Potato Dextrose Agar plates containing natamycin; format: cell-based; settings: 5 days at 25° C.
Procedure: (§1) Each of these organisms were field isolates.
(§2) Potato Dextrose Agar plates containing 0, 10 and 20 ppm of natamycin and mould suspensions were prepared using well known methods.
(§3) The freshly prepared suspensions were dilluted to final concentrations of 10^4 Colony Forming Units/ml.
(§4) 10 μl of each mould suspensions was inoculated in a spot on the agar plates (in duplo). The plates were incubated for 5 days at 25° C.
(§5) After 5 days of incubation on the control plates containing no natamycin, clear colonies were formed.

Mycogone pernicosa = test: as above; format: cell-based; settings: 5 days at 25° C.
Procedure: as §1, §2, §3, §4, §5

Trichoderma harzianum = test: as above; format: cell-based; settings: 5 days at 25° C.
Procedure: as §1, §2, §3, §4, §5

Verticillium fungicola = test: as above; format: cell-based; settings: 5 days at 25° C.
Procedure: as §1, §2, §3, §4, §5

most fungi = settings: cited from earlier work
[1] = test system: mycelium of most mushroom species, e.g. A. bisporus; settings: cited from earlier work

## C[C@@H]1C/C=C/C=C/C=C/C=C/[C@H](O[C@@H]2O[C@H](C)[C@@H](O)[C@H](N)[C@@H]2O)C[C@@H]2O[C@](O)(C[C@@H](O)C[C@H]3O[C@@H]3/C=C/C(=O)O1)C[C@H](O)[C@H]2C(=O)O [natamycin]
Agaricus bisporus; 10 ppm natamycin aqueous solution, 1.84 liter per square meter, five days prior to first flush, 9 tubs
  average yield: 3.94 pounds per square feet
Agaricus bisporus; 10 ppm natamycin
  yield compared to the untreated control: statistically significant yield increase
Dactylium dendroides; 10 ppm natamycin
  growth on agar plate: no growth
Dactylium dendroides; 20 ppm natamycin
  growth on agar plate: no growth
Mycogone pernicosa; 10 ppm natamycin
  growth on agar plate: no growth
Mycogone pernicosa; 20 ppm natamycin
  growth on agar plate: no growth
Trichoderma harzianum; 10 ppm natamycin
  growth on agar plate: no growth
Trichoderma harzianum; 20 ppm natamycin
  growth on agar plate: no growth
Verticillium fungicola; 10 ppm natamycin
  growth on agar plate: only some slight growth
Verticillium fungicola; 20 ppm natamycin
  growth on agar plate: no growth
Most fungi
  MIC (Minimal Inhibitory Concentration): less than 20 ppm
[1]
  inhibition of mushroom mycelium: inhibited
